Reference: patent US20060121449A1, “Method for selection of compounds which inhibit clonal cell growth and use thereof” (priority 2002, published 2006)
“And” between values parts separate entries of the source, which are not always exact repeats. Equal values may be shown once. “Also recorded” adds a separate entry of the source.

Test system: polyoma virus transformed BHK21/c13 cells, line S100T1
Experiment: Collocation inhibition test: clonal growth in sparsely and densely seeded areas of a cell density gradient of S100T1 cells in soft agar (Exp 13, 17, 19-26);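 note: soft agar cultures in 24-well plates with a cell density gradient in the top layer, compounds applied from DMSO stocks, clonal growth scored in sparse versus dense areas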
Details: for Growth of treated wells with smallest cell number: 42000 cells/ml; for Growth in low density (sparsely seeded) areas of treated wells: 125000-375000 cells/ml; for Significance: Exp 17 day 14; for Resulting clonal growth of treated cultures: Experiment 26
[1] = Exp 13, 4-OH-OPB 1-3 μM, Colchicine 0.01-0.1 μM
[2] = Exp 13, Low inhibitor conc. (4-OH—OPB 1 μM, Colchicine 10 nM), H: high cell density area
[3] = Exp 13, Low inhibitor conc. (4-OH—OPB 1 μM, Colchicine 10 nM), L: low cell density area
[4] = Exp 13, Medium inhibitor conc. (4-OH—OPB 3 μM, Colchicine 33 nM), H: high cell density area
[5] = Exp 13, Medium inhibitor conc. (4-OH—OPB 3 μM, Colchicine 33 nM), L: low cell density area
[6] = Exp 19, 120000 S100T1 cells/well

CCCCC1(O)C(=O)N(c2ccccc2)N(c2ccc(O)cc2)C1=O (stereo not shown) [4-OH-OPB, 4-butyl-4-hydroxy-2(p-hydroxyphenyl)-1-phenyl-3,5-pyrazolidinedione]
Growth in locations with high cell density [1]: did not inhibit clonal growth
Growth in locations with low cell density (sparsely seeded cells) [1]: full inhibition on clonal growth of sparsely seeded cells; also recorded: inhibited growth in locations with low cell density even when using low doses
Growth, summary of results after 3 days incubation [2]: +++
Growth, summary of results after 4 days incubation [2]: +++
Growth, summary of results after 3 days incubation [3]: +−
Growth, summary of results after 4 days incubation [3]: +−
Growth, summary of results after 3 days incubation [4]: +++
Growth, summary of results after 4 days incubation [4]: +++
Growth, summary of results after 3 days incubation [5]: −
Growth, summary of results after 4 days incubation [5]: −
Effect on growth in high- and low-density areas (Exp 17, 144000 S100T1 cells/well): good growth of colonies in high-density areas, but no growth in low-density areas
Clonal growth, results read on the day 14 (Exp 17, a: close to densely seeded cell areas, Low: Colchicine 0.1, Podophyllotoxin 0.3, Etoposide 20, 4-OH—OPB 0.67 μM in wells, DMSO 1.16 μl): ++
Clonal growth, results read on the day 14 (Exp 17, a: close to densely seeded cell areas, Medium: Colchicine 0.3, Podophyllotoxin 0.9, Etoposide 60, 4-OH—OPB 2 μM in wells, DMSO 6.8 μl): ++
Clonal growth, results read on the day 14 (Exp 17, b: sparsely seeded areas in the same agar culture, High: Colchicine 1, Podophyllotoxin 3, Etoposide 200, 4-OH—OPB 6.7 μM in wells, DMSO 29.2 μl): −
Clonal growth, results read on the day 14 (Exp 17, b: sparsely seeded areas in the same agar culture, Low: Colchicine 0.1, Podophyllotoxin 0.3, Etoposide 20, 4-OH—OPB 0.67 μM in wells, DMSO 1.16 μl): +
Clonal growth, results read on the day 14 (Exp 17, b: sparsely seeded areas in the same agar culture, Medium: Colchicine 0.3, Podophyllotoxin 0.9, Etoposide 60, 4-OH—OPB 2 μM in wells, DMSO 6.8 μl): −
Effect on growth in densely seeded areas [6]: no significant inhibition
Inhibition of growth in sparsely seeded areas [6]: significant at all concentrations
Clonal growth after 48 hours incubation (Exp 19, high concentration, H: high cell density part of the gradient): ++
Clonal growth after 48 hours incubation (Exp 19, high concentration, L: low cell density part of the gradient): −
Clonal growth after 48 hours incubation (Exp 19, low concentration (exact conc. only in figure), H: high cell density part of the gradient): ++
Clonal growth after 48 hours incubation (Exp 19, low concentration, L: low cell density part of the gradient): −
Clonal growth after 48 hours incubation (Exp 19, medium concentration, H: high cell density part of the gradient): ++
Clonal growth after 48 hours incubation (Exp 19, medium concentration, L: low cell density part of the gradient): −
Concentration with no significant growth inhibition on denser populated areas (Exp 20): 1 to 6 µM and 1 to 18 µM
Inhibiting effect on densely seeded areas, higher doses (6-18 μM) (Exp 20): small or moderate
Inhibiting effect on densely seeded areas, low doses (1 μM) (Exp 20): abscent
Clonal growth after 48 hours (Exp 20, 4-OH—OPB 1 μM, cell number High 225000 (375′/ml), H: high cell density part): +++
Clonal growth after 48 hours (Exp 20, 4-OH—OPB 1 μM, cell number High 225000 (375′/ml), L: low cell density part): −
Clonal growth after 48 hours (Exp 20, 4-OH—OPB 1 μM, cell number Medium 75000 (125′/ml), H: high cell density part): ++(+)
Clonal growth after 48 hours (Exp 20, 4-OH—OPB 1 μM, cell number Medium 75000 (125′/ml), L: low cell density part): −
Clonal growth after 48 hours (Exp 20, 4-OH—OPB 6 μM, cell number High 225000 (375′/ml), H: high cell density part): +
Clonal growth after 48 hours (Exp 20, 4-OH—OPB 6 μM, cell number High 225000 (375′/ml), L: low cell density part): −
Clonal growth after 48 hours (Exp 20, 4-OH—OPB 6 μM, cell number Medium 75000 (125′/ml), H: high cell density part): +
Clonal growth after 48 hours (Exp 20, 4-OH—OPB 6 μM, cell number Medium 75000 (125′/ml), L: low cell density part): −
Clonal growth after 48 hours (Exp 20, 4-OH—OPB 18 μM, cell number High 225000 (375′/ml), H: high cell density part): +
Clonal growth after 48 hours (Exp 20, 4-OH—OPB 18 μM, cell number High 225000 (375′/ml), L: low cell density part): −
Clonal growth after 48 hours (Exp 20, 4-OH—OPB 18 μM, cell number Medium 75000 (125′/ml), H: high cell density part): +
Clonal growth after 48 hours (Exp 20, 4-OH—OPB 18 μM, cell number Medium 75000 (125′/ml), L: low cell density part): −
Growth of treated wells with smallest cell number (Exp 20): did not grow even in dense areas
Growth of treated wells with smallest cell number (Exp 20, listed as 4-OH—OPB): Low cell numbers, 42000 cells/ml gave no
Growth in low density (sparsely seeded) areas of treated wells (Exp 20): very strong inhibition of growth
Growth in low density (sparsely seeded) areas of treated wells (Exp 20, listed as 4-OH—OPB): growth. 125000-375000 cells/ml gave no
Concentration with anti clonal effect on sparsely seeded cells (Exp 20, cross-titration of cell number and dose, 48 hours): 1 µM and 1 to 18 µM
Clonal growth (Exp 21, 117000 cells per well, Low concentration (see figure), H: area with high cell density): ++(+)
Clonal growth (Exp 21, High concentration, H: area with high cell density): +
Clonal growth (Exp 21, High concentration, L: area with low cell density): −
Clonal growth (Exp 21, Low concentration, L: area with low cell density): +−
Clonal growth (Exp 21, Medium concentration, H: area with high cell density): ++(+)
Clonal growth (Exp 21, Medium concentration, L: area with low cell density): −
Growth in dense areas, high concentration (Exp 22, control inhibitor): absent
Growth in dense areas, medium concentration (Exp 22, control inhibitor): doubtful
Effect on growth (Exp 23, 180000 S100T1 cells/well): complete inhibition of clonal growth in sparsely seeded areas
Clonal growth in densely seeded areas at high or medium concentrations (9 and 3 μM) (Exp 24, control): reduced clonal growth
Effect at 0.11 μM (Exp 24, control): The effect was gone
Effect at 0.11 μM (Exp 25, control): no growth inhibition was observed
Effect at 3 μM (Exp 25, control): substantial inhibition of the growth in densely seeded areas
Densely seeded parts of the gradient, high concentration (Exp 26, read after 24 hours): did not affect the densely seeded parts of the gradient
Inhibition of sparsely seeded cells, high and medium concentrations (Exp 26, read after 24 hours): nice and complete inhibition
Sparsely seeded cells, low concentration (Exp 26, read after 24 hours): break through of clonal growth
Significance (a: close to densely seeded cell areas, High: Colchicine 1, Podophyllotoxin 3, Etoposide 200, 4-OH—OPB 6.7 μM in wells, DMSO 29.2 μl): Probably
Significance (a: close to densely seeded cell areas, Low: Colchicine 0.1, Podophyllotoxin 0.3, Etoposide 20, 4-OH—OPB 0.67 μM in wells, DMSO 1.16 μl): No
Significance (a: close to densely seeded cell areas, Medium: Colchicine 0.3, Podophyllotoxin 0.9, Etoposide 60, 4-OH—OPB 2 μM in wells, DMSO 6.8 μl): No
Significance (b: sparsely seeded areas, High: Colchicine 1, Podophyllotoxin 3, Etoposide 200, 4-OH—OPB 6.7 μM in wells, DMSO 29.2 μl): Yes
Significance (b: sparsely seeded areas, Low: Colchicine 0.1, Podophyllotoxin 0.3, Etoposide 20, 4-OH—OPB 0.67 μM in wells, DMSO 1.16 μl): No
Significance (b: sparsely seeded areas, Medium: Colchicine 0.3, Podophyllotoxin 0.9, Etoposide 60, 4-OH—OPB 2 μM in wells, DMSO 6.8 μl): Yes
Clonal growth (Experiment 22, H: area with high cell density, High concentration): −
Clonal growth (Experiment 22, H: area with high cell density, Low concentration): ++
Clonal growth (Experiment 22, H: area with high cell density, Medium concentration): (+)
Clonal growth (Experiment 22, L: area with low cell density, High concentration): −
Clonal growth (Experiment 22, L: area with low cell density, Low concentration): −
Clonal growth (Experiment 22, L: area with low cell density, Medium concentration): −
Clonal growth (Experiment 23, A (area with high cell density), High concentration, 48 hours): (+)
Clonal growth (Experiment 23, A (area with high cell density), Low concentration, 48 hours): ++(+)
Clonal growth (Experiment 23, A (area with high cell density), Medium concentration, 48 hours): +
Clonal growth (Experiment 23, B (area with low cell density), High concentration, 48 hours): −
Clonal growth (Experiment 23, B (area with low cell density), Low concentration, 48 hours): −
Clonal growth (Experiment 23, B (area with low cell density), Medium concentration, 48 hours): −
Clonal growth (Experiment 24, H: area with high cell density, High concentration, 48 hours): +
Clonal growth (Experiment 24, H: area with high cell density, Low concentration, 48 hours): ++(+)
Clonal growth (Experiment 24, H: area with high cell density, Medium concentration, 48 hours): +
Clonal growth (Experiment 24, H: area with high cell density, X-low concentration, 48 hours): +(+)
Clonal growth (Experiment 24, H: area with high cell density, XX-low concentration, 48 hours): ++
Clonal growth (Experiment 24, L: area with low cell density, High concentration, 48 hours): −
Clonal growth (Experiment 24, L: area with low cell density, Low concentration, 48 hours): −
Clonal growth (Experiment 24, L: area with low cell density, Medium concentration, 48 hours): −
Clonal growth (Experiment 24, L: area with low cell density, X-low concentration, 48 hours): −
Clonal growth (Experiment 24, L: area with low cell density, XX-low concentration, 48 hours): (+)
Clonal growth (Experiment 25, H: area with high cell density, High concentration, after 48 hours incubation): (+)
Clonal growth (Experiment 25, H: area with high cell density, Low concentration, after 48 hours incubation): ++(+)
Clonal growth (Experiment 25, H: area with high cell density, Medium concentration, after 48 hours incubation): ++
Clonal growth (Experiment 25, H: area with high cell density, X-low concentration, after 48 hours incubation): ++
Clonal growth (Experiment 25, L: area with low cell density, High concentration, after 48 hours incubation): −
Clonal growth (Experiment 25, L: area with low cell density, Low concentration, after 48 hours incubation): −
Clonal growth (Experiment 25, L: area with low cell density, Medium concentration, after 48 hours incubation): −
Clonal growth (Experiment 25, L: area with low cell density, X-low concentration, after 48 hours incubation): ++
Resulting clonal growth of treated cultures (H: area with high cell density, High concentration, read after 24 hours): ++
Resulting clonal growth of treated cultures (H: area with high cell density, Low concentration, read after 24 hours): ++
Resulting clonal growth of treated cultures (H: area with high cell density, Medium concentration, read after 24 hours): ++
Resulting clonal growth of treated cultures (L: area with low cell density, High concentration, read after 24 hours): −
Resulting clonal growth of treated cultures (L: area with low cell density, Low concentration, read after 24 hours): (+)
Resulting clonal growth of treated cultures (L: area with low cell density, Medium concentration, read after 24 hours): −
Control of metastatic cells leaving tumour (ability of cells to leave a tumour, grow and infiltrate locally or grow in sparsely seeded areas, concluded from Exp 17): yes
Control of settlement of metastatic cells (single cells or very few cells spread to distant sites, concluded from Exp 17): completely
Toxicity for body or dense cell populations (supposed main advantages or disadvantages if used in cancer treatment, concluded from Exp 17): none or small
Tolerating long duration of treatment (supposed, if used in cancer treatment): yes
